In article PMC8587756, “Spirostanol Saponins from Flowers of Allium Porrum and Related Compounds Indicating Cytotoxic Activity and Affecting Nitric Oxide Production Inhibitory Effect in Peritoneal Macrophages” (Molecules, 2021):
Like-named read-outs stand apart in the source and are kept apart here.

Key:
[1] = system: mouse peritoneal cells; test: Cell viability / cytotoxicity, LDH assay in mouse peritoneal cells; format: cell-based
Procedure: (§1) Biological effects of studied compounds were evaluated in vitro, using mouse (C57BL6, Charles River Deutschland, Sulzfeld, Germany) peritoneal cells. Animals, killed by cervical dislocation, were i.p. injected with 8 mL of sterile saline. Pooled peritoneal cells collected from mice (n = 4–6 in individual experiments) were washed, re-suspended in culture medium, and seeded into 96-well round-bottom microplates (Costar, Corning, NY, USA) in 100-μL volumes, 2 × 10^5 cells/well. All experimental variants were run in duplicate. […] Cultures were maintained at 37 °C, 5% CO2 in humidified incubator (Sanyo Electric Biomedical, Osaka, Japan).
(§2) Viability of cells was analysed using the LDH (lactate dehydrogenase) assay. It is based on the determination of lactate dehydrogenase activity released from the cytosol of damaged cells into cell supernatant. The supernatants were harvested at the interval of 22 h of culture, diluted 1:1, and mixed with an aliquot of the LDH kit (Sigma-Aldrich, St. Louis, MO, USA). After 30-min incubation in the dark at ambient temperature, the reaction was stopped with 2 N HCl. […] Triton (1%) was used to induce 100% cell death. All control and experimental variants were run in quadruplicate.

[2] = as above; format: cell-based
Procedure: as §1, §2

[3] = system: murine leukemia cells P388; parameters: method as in PMID 9836426; conditions: cancer murine leukemia cells P388; cited from earlier work
[4] = system: NO production in mouse peritoneal cells; test: Nitric oxide production induced by LPS and IFN-γ in mouse peritoneal cells (Griess reagent); format: cell-based; conditions: for effect on production of NO (in words): LPS + IFN-γ, 24 h, Figure 3B; for inhibitory effects (in words): tested up to 25 µM; for IC50: LPS 0.1 ng/mL + IFN-γ 5 ng/mL, nitrites at 24 h, read-out: Nitric Oxide, IC50 (95% Limits of Confidence)
Procedure: Biological effects of studied compounds were evaluated in vitro, using mouse (C57BL6, Charles River Deutschland, Sulzfeld, Germany) peritoneal cells. Animals, killed by cervical dislocation, were i.p. injected with 8 mL of sterile saline. Pooled peritoneal cells collected from mice (n = 4–6 in individual experiments) were washed, re-suspended in culture medium, and seeded into 96-well round-bottom microplates (Costar, Corning, NY, USA) in 100-μL volumes, 2 × 10^5 cells/well. All experimental variants were run in duplicate. Complete RPMI-1640 culture medium (Sigma-Aldrich, St. Louis, MO, USA) contained 10% heat-inactivated foetal bovine serum, 2 mM L-glutamine, 50 μg/mL gentamicin, and 5 × 10^−5 M 2-mercaptoethanol (all Sigma-Aldrich). Cultures were maintained at 37 °C, 5% CO2 in humidified incubator (Sanyo Electric Biomedical, Osaka, Japan). The Institution Animal Ethics Committee (No. 13/2006) approved the animal welfare and all experimental procedures.
High output NO production was induced by mixture of lipopolysaccharide (LPS from E. coli 0111:B4, 0.1 ng/mL; Sigma) and murine recombinant interferon-γ (IFN-γ, 5 ng/mL; R&D Systems, Minneapolis, MN, USA) in mouse peritoneal cells. Tested compounds were applied concomitantly with these priming stimuli. The concentration of nitrites in supernatants of cells was assayed at the interval of 24 h. It was detected in individual, cell-free samples (50 μL) incubated 5 min at ambient temperature with an aliquot of a Griess reagent (1% sulphanilamide/0.1% naphtylendiamine/2.5% H3PO4). The absorbance at 540 nm was recorded using a microplate spectrophotometer (Tecan, Grödig, Austria). A nitrite calibration curve was used to convert absorbance to μM nitrite.
Estimates of 50% inhibitory concentrations of compounds (IC50, and CC50), correlation analysis, and graphical presentation of data were done using the Prism program (GraphPad Software, San Diego, CA, USA).

[5] = system: murine monocyte/macrophage cell line J-774; parameters: method as in PMID 9358643; conditions: 24 h, MTT assay; cited from earlier work
[6] = system: RAW 246.7 macrophages and lymphocytes; parameters: method as in PMID 26329920; conditions: different concentrations, 72 h, MTT assay; cited from earlier work
[7] = mouse peritoneal cells, LDH assay, 24 h, Figure 3A
[8] = C57BL6, mouse peritoneal cells, LDH assay, cultured 24 h (supernatants harvested at 22 h), read-out: Cytotoxicity CC50 (95% Limits of Confidence)

Compound	cytotoxic effects in model immune cells (in words) [1]	concentration at onset of cell viability decline [1, 7]	CC50 at 22 h ([2]; C57BL6, mouse)	effect on production of NO (in words) [4]	IC50 [4]	further results
C[C@@H]1CC[C@@]2(OC1)O[C@H]1CC3C4C[C@@H](O)C5C[C@@H](O[C@@H]6O[C@H](CO)[C@H](O[C@@H]7O[C@H](CO)[C@@H](O)[C@H](O[C@@H]8OC[C@@H](O)[C@H](O)[C@H]8O)[C@H]7O[C@@H]7O[C@H](CO)[C@@H](O)[C@H](O)[C@H]7O)[C@H](O)[C@H]6O)[C@H](O)C[C@]5(C)C4CC[C@]3(C)C1[C@@H]2C (stereo partly shown) [Compound 1, aginoside]	strong cytotoxic effects	approximately 4 µM	11.1 µM	inhibited the production of NO	–	cytotoxicity IC50 [3]: 2.1 µg/mL
C[C@@H]1CC[C@@]2(OC1)O[C@H]1CC3C4CCC5C[C@@H](O[C@@H]6O[C@H](CO)[C@H](O[C@@H]7O[C@H](CO)[C@@H](O)[C@H](O[C@@H]8OC[C@@H](O)[C@H](O)[C@H]8O)[C@H]7O[C@@H]7O[C@H](CO)[C@@H](O)[C@H](O)[C@H]7O)[C@H](O)[C@H]6O)[C@H](O)C[C@]5(C)C4CC[C@]3(C)C1[C@@H]2C (stereo partly shown) [Compound 2, 6-deoxy-aginoside]	strong cytotoxic effects	approximately 4 µM	5.7 µM	inhibited the production of NO	–	–
CC1CCC2(OC1)OC1CC3C4CC(O)C5CC(OC6OC(CO)C(OC7OC(CO)C(O)C(OC8OCC(O)C(O)C8O)C7OC7OC(CO)C(O)C(OC8OC(CO)C(O)C(O)C8O)C7O)C(O)C6O)C(O)CC5(C)C4CCC3(C)C1C2C (stereo not shown) [Compound 3]	strong cytotoxic effects	approximately 4 µM	7.21 µM	inhibited the production of NO	–	–
CC1CC[C@@]2(OC1)O[C@H]1C[C@H]3[C@@H]4C[C@@H](O)C5C[C@@H](O)[C@H](O)C[C@]5(C)[C@H]4CC[C@]3(C)[C@H]1[C@@H]2C (stereo partly drawn) [Compound 4, spirostan-2α, 3β, 6β–triol]	–	–	> 100 µM	–	–	cytotoxicity (in words) [5]: did not show cytotoxicity; inhibitory effects (in words) [4]: devoid of any inhibitory effects
C[C@@H]1CC[C@@]2(OC1)O[C@H]1[C@@H](O)[C@H]3[C@@H]4CC[C@H]5C[C@@H](O[C@@H]6O[C@H](CO)[C@H](O[C@@H]7O[C@H](CO)[C@@H](O)[C@H](O[C@@H]8OC[C@@H](O)[C@H](O)[C@H]8O)[C@H]7O[C@@H]7O[C@H](CO)[C@H](O)[C@H](O[C@@H]8O[C@H](CO)[C@@H](O)[C@H](O)[C@H]8O)[C@H]7O)[C@H](O)[C@H]6O)[C@H](O)C[C@]5(C)[C@H]4CC[C@]3(C)[C@H]1[C@@H]2C [Compound 5, digitonin, reference compound]	–	approximately 4 µM	–	inhibited the production of NO	5.52 µM	cytotoxic effects in model immune cells (in words) [1, 7]: strong cytotoxic effects; CC50 at 22 h [2, 8]: 5.83 µM
C[C@@H]1CC[C@@]2(OC1)O[C@H]1C[C@H]3[C@@H]4CC=C5C[C@@H](O)CC[C@]5(C)[C@H]4CC[C@]3(C)[C@H]1[C@@H]2C [Compound 7, diosgenin]	–	–	–	–	> 100 µM	CC50 at 22 h [2, 8]: > 100 µM; inhibitory effects (in words) [4]: devoid of any inhibitory effects; cytotoxicity (in words) [6]: No changes in cytotoxicity
C[C@@H]1CC[C@@]2(OC1)O[C@H]1C[C@H]3[C@@H]4CC=C5C[C@@H](O[C@@H]6O[C@H](CO)[C@@H](O[C@@H]7O[C@@H](C)[C@H](O)[C@@H](O)[C@H]7O)[C@H](O)[C@H]6O[C@@H]6O[C@@H](C)[C@H](O)[C@@H](O)[C@H]6O)CC[C@]5(C)[C@H]4CC[C@]3(C)[C@H]1[C@@H]2C [dioscin, reference compound]	–	–	–	–	–	cytotoxicity IC50 [3]: 0.092 µg/mL
tomatonin [Compound 6, reference compound]	–	approximately 4 µM	–	inhibited the production of NO	7.19 µM	cytotoxic effects in model immune cells (in words) [1, 7]: strong cytotoxic effects; CC50 ([1]; mouse peritoneal cells, LDH assay, cultured 24 h (supernatants harvested at 22 h), read-out: Cytotoxicity CC50 (95% Limits of Confidence)): 9.9 µM
